Tests used:
[1] = 298.15 K; 101.33 kPa; Liquid; Vibrating tube method
[2] = excess molar enthalpy (molar enthalpy of mixing); xn = mol fraction of the nth substance listed; conditions: 101 kPa, Liquid, Flow calorimetry

CC1(C)C(=O)[C@]2(C)CC[C@H]1C2 [(-)-fenchone]
Conditions	mass density [kg/m3]
[1]	940.67

CC1(C)C(=O)[C@]2(C)CC[C@H]1C2 [(-)-fenchone] + CC(C)O
excess molar enthalpy [kcal/mol], [2]
Conditions	283.15 K	298.15 K	313.15 K	328.15 K
x1 = 0.049	0.0619	0.0681	0.0727	0.0739
x1 = 0.097	0.117	0.13	0.138	0.14
x1 = 0.192	0.204	0.222	0.235	0.241
x1 = 0.292	0.26	0.287	0.306	0.316
x1 = 0.392	0.292	0.326	0.349	0.362
x1 = 0.499	0.302	0.338	0.364	0.378
x1 = 0.598	0.294	0.328	0.354	0.367
x1 = 0.697	0.263	0.294	0.316	0.326
x1 = 0.792	0.212	0.234	0.251	0.257
x1 = 0.899	0.116	0.13	0.141	0.144
x1 = 0.947	0.066	0.0743	0.0796	0.0817

CC1(C)C(=O)[C@]2(C)CC[C@H]1C2 [(-)-fenchone] + CCCO
excess molar enthalpy [kcal/mol], [2]
Conditions	283.15 K	298.15 K	313.15 K	328.15 K
x1 = 0.049	0.0459	0.0526	0.0578	0.0612
x1 = 0.098	0.0875	0.1	0.11	0.117
x1 = 0.193	0.154	0.175	0.191	0.204
x1 = 0.292	0.2	0.228	0.251	0.269
x1 = 0.397	0.232	0.267	0.293	0.315
x1 = 0.493	0.243	0.28	0.309	0.331
x1 = 0.592	0.239	0.277	0.305	0.326
x1 = 0.691	0.218	0.251	0.275	0.293
x1 = 0.805	0.167	0.19	0.206	0.217
x1 = 0.897	0.0975	0.114	0.125	0.131
x1 = 0.951	0.05	0.0574	0.0626	0.0657

CCCO [propan-1-ol]
Conditions	mass density [kg/m3]
[1]	799.56

CC(C)O [propan-2-ol]
Conditions	mass density [kg/m3]
[1]	781.2

Source: the NIST ThermoML archive (doi:10.1016/j.jct.2015.04.034)
